Assay results reported in ChEMBL document CHEMBL1152005, “Design, synthesis and X-ray crystallographic studies of novel FKBP-12 ligands” (Bioorg Med Chem Lett, 1995).

Columns and labels:
[1] = Compound was evaluated for its ability to inhibit the rotamase activity of FKBP-12; conditions: read-out: Ki app
[2] = Compound was evaluated for its ability to inhibit the rotamase activity of FKBP-12; no inhibition

Row | Compound | Ki [1] [µM] | Ki app [2]
1 | O=C1CC2CCCC(Sc3ccccc3)(C1)C2 (stereo not given) | 9.2 | –
2 | O=C1CC2CCCC(Oc3cccc(O)c3)(C1)C2 (stereo not given) | 16.7 | –
3 | CN(c1ccccc1)C12CCCC(CC(=O)C1)C2 (stereo not given) | 165 | –
4 | Cc1ccccc1OC12CCCC(CC(=O)C1)C2 (stereo not given) | 120 | –
5 | O=C1CC2CCCC(O)(C1)C2 (stereo not given) | – | Not Active
6 | Cc1cccc(C)c1OC12CCCC(CC(=O)C1)C2 (stereo not given) | 461 | –
7 | COc1cccc(OC23CCCC(CC(=O)C2)C3)c1 (stereo not given) | 92.1 | –
8 | O=C1CC2CCCC(OCc3ccccc3)(C1)C2 (stereo not given) | 85.8 | –
9 | O=C1CC2CCCC(Oc3ccccc3)(C1)C2 (stereo not given) | 116 | –
10 | O=C1CC2CCCC(S(=O)(=O)c3ccccc3)(C1)C2 (stereo not given) | 48.5 | –
